Measurements published in ChEMBL document CHEMBL4627331 (Bioorg Med Chem Lett, 2020).
pIC50: −log10 of the molar value.

What was measured:
Acetylcholinesterase [1] = molecular target: Acetylcholinesterase (Electrophorus electricus, UniProt O42275); experiment: Inhibition of electric eel AchE using acetylthiocholine as substrate by Ellman's method
[2] = molecular target: acetylcholinesterase (AChE) (Electrophorus electricus, UniProt O42275); experiment: Inhibition of electric eel AchE at 100 uM using acetylthiocholine as substrate by Ellman's method relative to control; conditions: electric eel AChE enzyme, probe acetylthiocholine
acetylcholinesterase (AChE) (Electrophorus electricus, UniProt O42275), sequence (O42275 whole entry): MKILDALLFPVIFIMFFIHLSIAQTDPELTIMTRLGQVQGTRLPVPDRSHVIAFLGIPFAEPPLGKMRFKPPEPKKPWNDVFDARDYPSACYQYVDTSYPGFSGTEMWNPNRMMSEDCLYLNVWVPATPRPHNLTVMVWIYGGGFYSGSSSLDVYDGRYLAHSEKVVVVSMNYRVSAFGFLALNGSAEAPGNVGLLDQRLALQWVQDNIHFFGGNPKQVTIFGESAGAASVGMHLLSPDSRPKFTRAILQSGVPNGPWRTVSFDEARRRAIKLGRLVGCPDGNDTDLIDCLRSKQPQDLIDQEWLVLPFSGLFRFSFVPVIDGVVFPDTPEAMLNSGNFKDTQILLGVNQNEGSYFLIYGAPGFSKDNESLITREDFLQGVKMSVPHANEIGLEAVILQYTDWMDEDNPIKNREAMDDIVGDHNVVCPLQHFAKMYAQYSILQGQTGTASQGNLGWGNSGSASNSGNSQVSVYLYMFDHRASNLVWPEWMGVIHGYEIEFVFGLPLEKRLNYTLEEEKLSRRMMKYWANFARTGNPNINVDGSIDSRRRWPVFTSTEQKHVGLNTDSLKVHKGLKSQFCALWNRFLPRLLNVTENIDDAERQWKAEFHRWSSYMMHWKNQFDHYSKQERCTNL

Cholinesterase [3] = molecular target: Cholinesterase (Equus caballus, UniProt P81908)
Cholinesterase (Equus caballus, UniProt P81908), sequence (P81908 whole entry): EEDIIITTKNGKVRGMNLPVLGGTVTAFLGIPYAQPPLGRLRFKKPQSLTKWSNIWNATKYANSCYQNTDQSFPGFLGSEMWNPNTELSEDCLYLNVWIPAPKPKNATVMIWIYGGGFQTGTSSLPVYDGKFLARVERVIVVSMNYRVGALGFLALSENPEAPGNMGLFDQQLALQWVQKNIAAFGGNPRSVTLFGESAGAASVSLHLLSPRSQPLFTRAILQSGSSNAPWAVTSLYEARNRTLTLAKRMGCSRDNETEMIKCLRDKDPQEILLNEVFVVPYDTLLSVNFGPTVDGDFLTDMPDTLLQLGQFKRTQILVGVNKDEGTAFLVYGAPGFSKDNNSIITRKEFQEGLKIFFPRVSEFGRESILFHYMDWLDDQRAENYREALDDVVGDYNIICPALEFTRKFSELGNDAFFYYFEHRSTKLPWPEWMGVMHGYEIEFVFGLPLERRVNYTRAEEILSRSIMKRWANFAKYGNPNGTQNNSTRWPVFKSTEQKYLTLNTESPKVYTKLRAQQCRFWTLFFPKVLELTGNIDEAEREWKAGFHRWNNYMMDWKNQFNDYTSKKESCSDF
Description: Inhibition of equine BuchE using butyrylthiocholine as substrate by Ellman's method

[4] = Cytotoxicity against human SH-SY5Y cells by MTT assay; format: cell-based
Acetylcholinesterase [5] = molecular target: Acetylcholinesterase (Homo sapiens, UniProt P22303); experiment: Inhibition of human AchE
Acetylcholinesterase (Homo sapiens, UniProt P22303), sequence (P22303 whole entry): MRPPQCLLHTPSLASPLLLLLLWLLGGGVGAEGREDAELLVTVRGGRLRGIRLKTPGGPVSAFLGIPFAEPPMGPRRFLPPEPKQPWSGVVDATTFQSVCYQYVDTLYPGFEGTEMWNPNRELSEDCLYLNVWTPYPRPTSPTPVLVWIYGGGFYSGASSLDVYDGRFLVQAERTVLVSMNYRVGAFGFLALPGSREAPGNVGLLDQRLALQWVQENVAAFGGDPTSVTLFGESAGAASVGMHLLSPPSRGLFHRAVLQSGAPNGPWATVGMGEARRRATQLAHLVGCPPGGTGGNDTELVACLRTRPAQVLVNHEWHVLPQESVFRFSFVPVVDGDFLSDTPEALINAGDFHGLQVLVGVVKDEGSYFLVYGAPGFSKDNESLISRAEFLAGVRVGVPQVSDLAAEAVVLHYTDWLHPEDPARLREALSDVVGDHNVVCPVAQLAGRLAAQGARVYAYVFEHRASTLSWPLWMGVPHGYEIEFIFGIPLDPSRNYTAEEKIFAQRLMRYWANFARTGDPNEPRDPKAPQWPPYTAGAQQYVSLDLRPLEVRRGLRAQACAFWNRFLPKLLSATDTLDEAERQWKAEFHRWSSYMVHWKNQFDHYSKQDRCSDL

[6] = Selectivity index, ratio of IC50 for equine BuchE using butyrylthiocholine as substrate by Ellman's method to IC50 for human BuchE
Cholinesterase [7] = molecular target: Cholinesterase (Homo sapiens, UniProt P06276); experiment: Inhibition of human BuchE
Cholinesterase (Homo sapiens, UniProt P06276), sequence (P06276 whole entry): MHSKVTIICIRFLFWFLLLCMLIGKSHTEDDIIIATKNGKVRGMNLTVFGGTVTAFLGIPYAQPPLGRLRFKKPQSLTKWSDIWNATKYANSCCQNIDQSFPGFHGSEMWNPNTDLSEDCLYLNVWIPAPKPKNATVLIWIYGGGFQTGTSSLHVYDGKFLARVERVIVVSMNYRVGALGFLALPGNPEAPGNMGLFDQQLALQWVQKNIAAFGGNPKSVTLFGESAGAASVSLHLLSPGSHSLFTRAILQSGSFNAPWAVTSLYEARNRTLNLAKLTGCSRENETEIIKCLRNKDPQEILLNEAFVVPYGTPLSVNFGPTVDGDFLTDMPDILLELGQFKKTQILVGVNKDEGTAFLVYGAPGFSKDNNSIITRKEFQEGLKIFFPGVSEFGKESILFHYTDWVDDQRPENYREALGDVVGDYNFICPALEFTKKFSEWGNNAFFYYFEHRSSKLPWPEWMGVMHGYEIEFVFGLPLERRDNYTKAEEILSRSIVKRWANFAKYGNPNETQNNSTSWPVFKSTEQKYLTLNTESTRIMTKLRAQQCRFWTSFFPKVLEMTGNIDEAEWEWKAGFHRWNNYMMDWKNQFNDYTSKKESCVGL

[8] = molecular target: acetylcholinesterase (AChE) (Homo sapiens, UniProt P22303); experiment: Inhibition of human AchE at 100 uM relative to control; conditions: human AChE enzyme
acetylcholinesterase (AChE) (Homo sapiens, UniProt P22303), sequence (P22303 whole entry): as the sequence (P22303 whole entry) above

Acetylcholinesterase (Electrophorus electricus, UniProt O42275), sequence (O42275 whole entry): as the sequence (O42275 whole entry) above

| SMILES | pIC50 (Acetylcholinesterase [1]) | inhibition at 100 µM [2] | pIC50 (Cholinesterase [3]) | CC50 [4] | pIC50 (Acetylcholinesterase [5]) | Ratio IC50 [6] | pIC50 (Cholinesterase [7]) | inhibition at 100 µM [8] |
| --- | --- | --- | --- | --- | --- | --- | --- | --- |
| COc1cc(C2C3=C(CCCC3=O)NC3=C2C(=O)CCC3)ccc1OS(=O)(=O)c1ccc(C)cc1 | < 4.00 | 15% | 6.02 |  |  |  |  |  |
| O=C1CCCC2=C1C(c1ccc(OCc3ccccc3)c(Br)c1)C1=C(CCCC1=O)N2 | < 4.00 | 14% | 6.20 |  |  |  |  |  |
| CN1C2=C(C(=O)CCC2)C(c2ccc(OCc3ccc(Cl)cc3)c(Cl)c2)C2=C1CCCC2=O | < 4.00 | 23% | 5.78 |  |  |  |  |  |
| CCOc1cc(C2C3=C(CCCC3=O)NC3=C2C(=O)CCC3)ccc1OCc1ccccc1 | < 4.00 | 19% | 6.12 |  |  |  |  |  |
| COc1cc(C2C3=C(CCCC3=O)NC3=C2C(=O)CCC3)ccc1OCc1ccc(F)cc1 | < 4.00 | 27% | 6.62 | ≥ 100 µM | 3.90 | 2.5 | 7.01 |  |
| COc1cc(C2C3=C(CCCC3=O)N(C)C3=C2C(=O)CCC3)ccc1OCc1ccc(F)cc1 | < 4.00 | 33% | 5.61 |  |  |  |  |  |
| O=C1CCCC2=C1C(c1ccc(OCc3cccc(F)c3)c(Br)c1)C1=C(CCCC1=O)N2 | < 4.00 | 22% | 6.41 |  | < 4.00 | 2.5 | 6.85 | 39% |
| O=C1CCCC2=C1C(c1ccc(OCc3ccccc3)cc1)C1=C(CCCC1=O)N2 | < 4.00 | 24% | 5.22 |  |  |  |  |  |
